Data taken from ChEMBL document CHEMBL1201862, “PubChem BioAssay data set” (2004).
Active and inactive are the calls of the source. For most assays here, no stated cut-off is given here; in the data, actives have a measured EC50 and inactives only a lower limit.

Assays:
[1] = fluconazole-exposed Candida albicans growth modulators – fluorescence, retest, confirmation (AID 2467); type: functional, cell-based
[2] = NIH-3T3 fibroblast cytotoxicity, dose response, cytotoxicity control, cell-based, fluorescence, Alamar Blue, secondary assay (AID 2327); type: functional;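 further: NIH-3T3 mouse fibroblasts cultured with fluconazole at 8 µg/mL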
[3] = biological target: T1, Carboxy-terminal domain RNA polymerase II polypeptide A small phosphatase 1 (Homo sapiens, UniProt Q9GZU7); assay: CTDSP1 inhibitors, concentration-response, biochemical, absorbance readout, ultra-high-throughput screen actives (AID 540297); type: functional
T1 sequence (Q9GZU7 whole entry): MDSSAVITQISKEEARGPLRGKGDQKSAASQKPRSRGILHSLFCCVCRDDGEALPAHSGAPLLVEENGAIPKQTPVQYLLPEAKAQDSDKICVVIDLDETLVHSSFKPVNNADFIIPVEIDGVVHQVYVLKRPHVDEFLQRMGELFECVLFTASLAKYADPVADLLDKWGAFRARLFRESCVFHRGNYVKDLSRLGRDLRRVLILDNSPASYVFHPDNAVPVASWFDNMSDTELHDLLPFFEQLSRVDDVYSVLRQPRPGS

BJ [4] = assay: BJ-TERT-LT-ST fibroblast viability loss – cell-based, RAS-independent, luminescence, dose response (AID 1935); type: functional; details: Homo sapiens;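 further: BJ fibroblasts immortalized with TERT plus LT and ST oncogenes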
[5] = DRD fibroblast viability loss – cell-based, non-viral oncogenic, luminescence, dose response (AID 1934); type: functional; details: Homo sapiens
Melanocortin receptor 4 = Melanocortin receptor 4 (Homo sapiens, UniProt P32245); type: functional, cell-based;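 further: Cell-based assay with luminescence read-out, confirmatory dose-response testing for agonist activity of biased ligands at MC4R; human U2OS cells with tagged receptor and beta-arrestin; potency of agonists that increase receptor coupling to beta-arrestin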
Sequence of Melanocortin receptor 4 (P32245 whole entry): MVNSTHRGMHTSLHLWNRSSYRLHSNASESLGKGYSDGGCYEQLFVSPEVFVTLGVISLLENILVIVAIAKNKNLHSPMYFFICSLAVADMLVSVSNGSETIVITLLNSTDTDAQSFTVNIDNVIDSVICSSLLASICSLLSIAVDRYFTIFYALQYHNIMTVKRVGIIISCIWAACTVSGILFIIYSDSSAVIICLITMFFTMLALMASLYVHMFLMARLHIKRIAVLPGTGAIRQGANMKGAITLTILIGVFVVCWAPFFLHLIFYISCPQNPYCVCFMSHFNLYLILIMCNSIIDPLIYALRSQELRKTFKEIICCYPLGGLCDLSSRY

BJ [6] = assay: growth inhibition of engineered Ras-driven BJ cells – cell-based, alamar blue fluorescence, cherrypicked samples, dose response (AID 2631); type: functional; details: Homo sapiens;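 further: confirmatory dose-response assay in RAS-dependent BJ fibroblasts engineered with TERT, LT and ST, with cytotoxicity read by fluorescence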
BJ [7] = assay: cells; type: functional, cell-based; details: Homo sapiens
BJ [8] = assay: BJ-TERT fibroblast viability loss – cell-based, RAS-independent, luminescence, dose response (AID 1933); type: functional; details: Homo sapiens
[9] = Luminescence Cell-Based Dose Retest to Confirm Inhibitors of Cancer Stem Cells. [Related pubchem assays (depositor defined):AID2717, AID2721]; type: functional; details: Homo sapiens
HEK293 = assay: EBV LMP1 TES2 canonical NF-kB signalling blockers – cell-based, HEK293, luciferase, cherry-pick, dose response (AID 588343); type: functional; details: Homo sapiens
[10] = microbe, parasite or virus in culture; type: functional; details: Mycobacterium tuberculosis
[11] = Luminescence Cell-Based Dose Confirmation HTS to Identify Inhibitors of Platelet Dense Granule Release. [Related pubchem assays: 1663 (Primary HTS), 1678 (Summary of Project)]; type: functional
[12] = biological target: Luciferin 4-monooxygenase (Photinus pyralis, UniProt P08659); assay: inhibition of purified Photinus pyralis luciferase – biochemical, luminescence, dose response (AID 1891)
Sequence of Luciferin 4-monooxygenase (P08659 whole entry): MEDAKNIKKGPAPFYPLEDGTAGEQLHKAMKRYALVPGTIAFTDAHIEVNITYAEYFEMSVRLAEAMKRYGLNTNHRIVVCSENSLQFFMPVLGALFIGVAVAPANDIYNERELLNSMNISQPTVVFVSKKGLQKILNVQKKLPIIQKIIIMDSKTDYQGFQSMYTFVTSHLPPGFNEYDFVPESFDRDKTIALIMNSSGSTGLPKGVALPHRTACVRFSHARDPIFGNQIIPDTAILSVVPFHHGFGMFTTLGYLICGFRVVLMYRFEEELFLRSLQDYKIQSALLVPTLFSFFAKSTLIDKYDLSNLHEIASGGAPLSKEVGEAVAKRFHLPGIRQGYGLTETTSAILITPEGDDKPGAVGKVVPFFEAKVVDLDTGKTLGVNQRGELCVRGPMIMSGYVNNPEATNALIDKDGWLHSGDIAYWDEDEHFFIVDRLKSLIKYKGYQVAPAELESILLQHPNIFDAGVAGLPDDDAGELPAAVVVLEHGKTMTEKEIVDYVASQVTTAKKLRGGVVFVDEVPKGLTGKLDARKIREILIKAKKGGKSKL

[13] = HEK-293T viability loss after treatment – luminescence, T-cell screen hits, cytotoxicity control for TCR NF-kB inhibitor project, dose response (AID 489026); type: functional, cell-based;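 further: cells exposed to compound about 14 hours before the viability readout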

Structure (SMILES): N#C/C(=C\c1ccc(OC(=O)c2cccs2)cc1)c1nc2ccccc2[nH]1
- EC50 [1]: 3.35 µM (active)
- EC50 [2]: 76.2 µM (active)
- IC50 [3]: 11.4 µM (active)

Structure (SMILES): CCc1ccc(CCC(=O)Nc2ncc(Cc3ccccc3Cl)s2)o1
- EC50 (BJ [4]): 2.83 µM (active)
- EC50 [5]: 3.72 µM (active)
- EC50 (Melanocortin receptor 4): > 89.2 µM (inactive)
- EC50 (BJ [6]): 1.83 µM (active)
- EC50 (BJ [7]): 14 µM (active)
- EC50 (BJ [8]): 2.76 µM (active)
- AC50 [9]: 0.184 µM (active)

Structure (SMILES): C[C@@H]1CN([C@@H](C)CO)S(=O)(=O)c2ccc(/C=C/c3ccccc3)cc2O[C@@H]1CN(C)Cc1ccc(C(=O)O)cc1
- AC50 (HEK293): 35.4 µM (active)

Structure (SMILES): COc1cccc(CC2(CO)CCCN(Cc3[nH]c4ccc(C)cc4c3C)C2)c1 (stereo not drawn)
- EC50 (Melanocortin receptor 4): > 89.2 µM (inactive)
- CC50 [10]: 39.3 µM (active)
- EC50 [11]: > 112 µM (not active)
- EC50 [12]: > 112 µM (not active)

Structure (SMILES): CC(=O)Nc1cc(-c2ccccc2)cn2c(-c3ccc(F)c(Cl)c3)cnc12
- EC50 (Melanocortin receptor 4): > 89.2 µM (inactive)

Structure (SMILES): CC(C)Oc1ccccc1C1CC(=O)Nc2cc3c(cc21)OCCO3 (stereo not drawn)
- EC50 (BJ [4]): 0.709 µM (active)
- EC50 [5]: 0.676 µM (active)
- IC50 [13]: > 80 µM (inactive)
- EC50 (BJ [6]): 0.181 µM (active)
- EC50 (BJ [7]): 8.62 µM (active)
- EC50 (BJ [8]): 1.36 µM (active)

Structure (SMILES): COc1cccc(C2c3c(-c4ccccc4)n[nH]c3C(=O)N2c2ccc(C(=O)O)cc2)c1 (stereo not drawn)
- IC50 [3]: 5.63 µM (active)
